Row | melting point [°C] | Compound
1 | 156 to 158 | CNC(=O)CNC(=S)NN
2 | 151 to 153 | Sc1nnc(N2CCOCC2)n1Cc1ccco1
3 | 73 to 75 | O=C(O)CCCN1CCOC1=O
4 | 397 to 399 | O=c1[nH]cnc2nc(N3CCOCC3)sc12
5 | 219 to 221 | COc1ncc(C(=O)O)cn1
6 | 129 to 131 | COCCS(=O)(=O)c1ccc(Cl)c(C(=O)O)c1Cl
7 | 61 to 63 | C=CCNC(=S)N1CCOCC1
8 | 64 to 66 | CC(C)(C)C(O)CN (stereo not drawn)
9 | 155 to 157 | CCc1sc(C(=O)O)cc1Br
10 | 183 to 185 | CC(=O)c1c(C)nsc1N
11 | 66 to 68 | CCOC(=O)C1CCC(=O)NC1 (stereo not drawn)
12 | 185 to 189 | CC(C)(C)c1nnc(S)n1N
13 | 168 to 170 | NC(=O)C1CCCN(c2ccc(N)cn2)C1 (stereo not drawn)
14 | 52 to 54 | CC(C)(C)C(=O)N1CCNCC1
15 | 72 to 74 | CC(C)(CN)C(N)=O
16 | 145 to 147 | CN1C(=O)CC(C(=O)O)C1c1ccc(C(F)(F)F)cc1 (stereo not drawn)
17 | 239 to 241 | CCN1CCN(S(=O)(=O)c2ccc(CCC(=O)O)cc2)CC1
18 | 169 to 171 | O=C(O)c1cc(Br)c[nH]1
19 | 213 to 215 | Cc1ccc(C)n1-c1ccc(C(=O)O)cc1

Row | melting point [°C] | Compound
20 | 179 to 181 | CC(C)c1nc(C(=O)O)nn1-c1c(Cl)cccc1Cl
21 | 72 to 74 | CNC1CCC(NC(=O)OC(C)(C)C)CC1 (stereo not drawn)
22 | 139 to 141 | O=C(O)C1CCCN1C(=O)Cc1cccs1 (stereo not drawn)
23 | 83 to 85 | Nc1ccc(N2CCCC2)nc1
24 | 94 to 96 | CCOC(=O)c1cc(C)nc(-c2ccccc2)n1
25 | 29 to 31 | Clc1cccc2c1NCC2
26 | 246 to 248 | COc1cc(C=C2CCc3c2nc2ccccc2c3C(=O)O)cc(OC)c1OC
27 | 158 to 160 | CC(Oc1ccc(C#N)cc1)C(=O)O (stereo not drawn)
28 | 124 to 126 | O=C(O)C1CC1c1cccc(Cl)c1Cl (stereo not drawn)
29 | 174 to 176 | O=C(O)c1nnn(-c2ccccc2)c1C1CC1
30 | 152 to 154 | COc1c(Cl)cc(C(=O)O)cc1Cl
31 | 97 to 99 | CS(=O)(=O)N1CCC(=O)CC1
32 | 159 to 161 | COc1cccc2c1CCCC(=O)N2
33 | 138 to 140 | O=C(O)C12CC3CC(C1)CC(C(F)(F)F)(C3)C2
34 | 209 to 211 | Cc1ccc(-c2cc(C(=O)O)n[nH]2)s1
35 | 131 to 133 | Cc1ccc(S(=O)(=O)C2(C(=O)O)CCCC2)cc1
36 | 259 to 261 | Cc1ccc(-n2[nH]c(C(=O)O)cc2=O)cc1
37 | 220 to 222 | O=C(O)CN1C(=O)Cc2ccccc21

Further lines, the molecule ahead of its results:

Row | Compound | melting point [°C]
38 | Cc1occc1C(=O)Nc1cc(N)ccc1F | 130 to 132
39 | BrCCC12CC3CC(CC(C3)C1)C2 | 56 to 58
40 | COc1ccccc1OCC(=O)NN | 101 to 103
41 | NC(=S)Cc1ccc(Br)cc1 | 146 to 148
42 | Cc1ccc2cccnc2c1S(N)(=O)=O | 170 to 172
43 | O=c1[nH]cc(S(=O)(=O)Cl)c(=O)[nH]1 | 155 to 157
44 | N#Cc1ccccc1CN1C(=O)CCC1=O | 122 to 124
45 | NC(=O)C(Cl)c1ccc(Br)cc1F (stereo not drawn) | 101 to 103
46 | Cc1ccc(-n2c(C)ccc2C)cc1N | 83 to 85
47 | NC1=NS(=O)(=O)c2ccccc21 | 279 to 281
48 | Nc1ccc(NC(=O)Oc2ccccc2)cc1 | 135 to 137
49 | COc1ccc(-c2csc(NC(=O)CCl)n2)c(OC)c1 | 109 to 111
50 | O=C(O)c1cn(Cc2ccccc2)nc1-c1ccc(Cl)cc1 | 162 to 165
51 | N#Cc1cnn(-c2ccccc2)n1 | 90 to 92
52 | Cc1cc(C)c2c(C)nn(-c3ccc(N)cc3)c2n1 | 104 to 106
53 | Cc1cc(C)c2c(N)c(C(=O)NN)sc2n1 | 245 to 247
54 | Fc1cc(Br)cc2c(Cl)ccnc12 | 149 to 151
55 | OCc1ccc2[nH]nnc2c1 | 146 to 148
56 | NC(Cc1ccco1)C(=O)O (stereo not drawn) | 179 to 181
57 | CS(=O)c1nnc[nH]1 (stereo not drawn) | 119 to 121
58 | NS(=O)(=O)c1cccc(N2C(=O)C=CC2=O)c1 | 220 to 222
59 | Nc1ccn(-c2ncccc2Cl)n1 | 89 to 91

Row | Compound | melting point [°C]
60 | CNC(=O)c1ccc(S(=O)(=O)Cl)cc1 | 125 to 130
61 | O=C(O)CCN1C(=O)c2ccc(Br)cc2C1=O | 209 to 211
62 | CCN(CC)S(=O)(=O)c1ccc2nc(O)cc(C(=O)O)c2c1 | 310 to 312
63 | Cc1ccc(/C=C/c2n[nH]c(S)n2)o1 | 275 to 277
64 | Nc1ccc(NC(=O)c2ccc(F)cc2)cc1C(F)(F)F | 120 to 122
65 | c1cncc(CNC2=NCCS2)c1 | 90 to 92
66 | O=C(O)C1CN(C(=O)c2ccco2)c2ccccc2O1 (stereo not drawn) | 154 to 156
67 | O=[N+]([O-])c1ccc(-c2noc(C(F)F)n2)cc1 | 76 to 78
68 | COc1ccc(-c2nn(CCC#N)cc2C(=O)O)cc1[N+](=O)[O-] | 190 to 192
69 | Cc1ccc(C(=O)NCC(=O)O)s1 | 66 to 68
70 | CCc1nc2cc(N)ccc2o1 | 69 to 71
71 | Clc1ccc(Cc2nn[nH]n2)cc1Cl | 153 to 155
72 | NNc1ccc(S(=O)(=O)Nc2ccccn2)cn1 | 218 to 220
73 | O=C1CCc2c(Cl)cccc21 | 84 to 86
74 | NC(=NO)c1ccc(Br)s1 | 124 to 126
75 | Nc1ccc2nc(N)ccc2c1 | 213 to 215
76 | COc1cc(C=O)cc(Br)c1OC(F)F | 90 to 92
77 | NC(=O)c1cccnc1S | 297 to 299
78 | Cc1ccc2c(CC(=O)O)cc(=O)oc2c1 | 209 to 211
79 | CN(Cc1ccccc1N)C(=O)c1cc2ccccc2o1 | 109 to 111
80 | COc1ccc(COCC(=O)O)cc1 | 41 to 43
81 | Cc1sc2ncnc(NN)c2c1C | 208 to 210

Row | Compound | melting point [°C]
82 | Nc1ccc(Oc2ccncc2)cc1 | 160 to 162
83 | O=Cc1ccc(OCc2ccccn2)cc1 | 88 to 90
84 | COc1ccc(CCC(=O)O)cc1F | 111 to 113
85 | CC(C)Oc1cccc(CNC(=O)CCl)c1 | 69 to 71
86 | CCn1c(S)nnc1C1CC1 | < 17
87 | CCn1c(S)nnc1-c1cccs1 | 103 to 105
88 | CCOc1cc(C=O)cc(Br)c1OCc1ccccc1 | 55 to 57
89 | COc1cccc(CSCC(N)C(=O)O)c1 (stereo not drawn) | 194 to 196
90 | Cc1[nH]c2c(F)cccc2c(=O)c1C | 284 to 286
91 | O=S(=O)(Cl)c1c[nH]c2ncccc12 | 187 to 189
92 | Cc1ccc(C(=O)CCl)cc1 | 53 to 57
93 | Cc1ccc(Br)cc1NC(=O)CN | 141 to 143
94 | Cc1cc(Cl)cc2nc(Cl)oc12 | 59 to 61
95 | Cc1ccc(-n2c(N)nc3cc(C)ccc32)cc1 | 162 to 164
96 | Cc1cc(Br)cc(C=O)c1O | 68 to 70
97 | CCC(c1ccc(Br)cc1)N1CCNCC1 (stereo not drawn) | 65 to 67
98 | Oc1nnc(-c2ccccc2)o1 | 138 to 140
99 | COc1ccc(CN2C(=O)c3ccccc3C2=O)cc1C(=O)O | 143 to 145
100 | COc1ccccc1CNc1cccc2cnccc12 | 118 to 120
101 | O=C(Nc1ccc(-n2cncn2)nc1)OCC(F)(F)F | 192 to 194
102 | Cc1nc2ccccc2n1Cc1cc(N)ccc1Cl | 191 to 193
103 | O=C(O)c1c2c(nc3ccccc13)C(=Cc1ccccc1)CC2 | 279 to 281

— a melting point compilation (Tetko et al.)
